Measurements published in patent US12006321B2, “Substituted pyrazolo[1,5-a]pyrimidines as apelin receptor agonists” (Sanford Burnham Prebys Medical Discovery Institute, priority 2017, dated 2024).

Biological target: T1, human apelin receptor (APJ, APLNR) (Homo sapiens, UniProt P35414)
T1 construct: host or cells: Chinese hamster ovary (CHO) cells, stably integrated receptor
T1 sequence (P35414 1-380): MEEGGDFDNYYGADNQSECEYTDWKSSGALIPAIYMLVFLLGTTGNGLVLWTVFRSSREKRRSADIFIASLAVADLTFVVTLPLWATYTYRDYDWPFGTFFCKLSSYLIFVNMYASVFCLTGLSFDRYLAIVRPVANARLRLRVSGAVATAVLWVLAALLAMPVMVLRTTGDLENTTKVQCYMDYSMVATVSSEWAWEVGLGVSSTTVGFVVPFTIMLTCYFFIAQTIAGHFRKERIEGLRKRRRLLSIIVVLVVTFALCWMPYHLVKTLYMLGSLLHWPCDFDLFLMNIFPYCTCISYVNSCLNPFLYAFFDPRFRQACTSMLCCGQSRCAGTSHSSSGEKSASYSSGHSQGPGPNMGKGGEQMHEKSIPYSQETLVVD
Test: cell-based cAMP assay (TR-FRET) in Chinese hamster ovary cells expressing the apelin receptor
Conditions: EC50 = 50% of control (apelin-13, 1 nM) response; cAMP in CHO cells, 0.5 h incubation; read-out: Potency Category
Method: This example illustrates the biological activity of various compounds tested against the APJ receptor.
Commercially available cell lines were used to screen chemical libraries to identify compounds that potently and selectively activated the human apelin receptor. The assays disclosed herein were performed using cell lines from DiscoveX, Inc.
Biological activity was determined to the cell-based assay. This assay detects activation of the receptor by reporting on intracellular cyclic adenosine monophosphate (cAMP) level. Chinese hamster ovary cells engineered to express the stably integrated human appellant receptor (APJ, AGTRL-one, APLNR), pleaded into the wells of the microtiter plate. Cells were stimulated with […] to increase intracellular cyclic AMP. Immediately following, compounds were added to the range of final concentrations 0.0-100 μM, in DMSO (not to exceed a final DMSO concentration greater than 1% v/v), and allowed to incubate with the cells for 0.5 h. At the end of the incubation, cells were lysed to stop APJ signaling and cAMP was quantified using a commercially available competitive immunoassay kit that applies homogenous time-resolved florescence energy transfer (TR-FRET). The assay is based on the competition between a europium (Eu) chelate-labeled cAMP donor tracer and cellular cAMP for binding sites on a cAMP-specific monoclonal antibody labeled with an acceptor fluorophore. When antibodies are bound to the cAMP tracer light emissions at 320 nm stimulate the energy transfer from the donor to the acceptor, which in turn emits light at 665 nm. In the presence of competitive unlabeled cAMP (derived from the activity of the receptor or forskolin-stimulated production of cAMP), the labelled cAMP tracer is dissociated from the cAMP antibody, resulting in a loss of FRET signal. The amount of light emitted by the FRET is inversely proportional to the cAMP generated by the cell/receptor system. Potency and efficacy at APJ are reported in reference to the canonical APJ receptor agonist apelin-13 when tested at 1 nM.
Compound competency is reported as the effective concentration required to effect 50% (EC 50) of the control (apelin—13, 1 nM) response in micromole are (μM) units. Compound efficacy (% response) is reported as a percentage of the maximal apein-13 response at 1 nM (control). Potencies were calculated by fitting a four-point logistic curve to concentration response consisting of at least 10 discrete data points spanning effective range of the compounds in the cell-based assay that measures cAMP. In Table 1, the Potency Categories are A, B, C and D. Category A EC50>500 nM; Category B 200<EC50<500 nM; Category C 100<EC50<200 nM; Category D<100 nM.

| SMILES | EC50 [nM] |
| --- | --- |
| CCOC(=O)c1cc(C(C)C)n2nc(C)c(-c3c(C)cccc3OC)c2n1 [Compound 65, ethyl 3-(6-methoxy-2-methylphenyl)-2-methyl-7-(methylethyl)-8-hydropyrazolo[1,5-a]pyrimidine-5-carboxylate] | > 500 |
| CCOC(=O)c1cc(C(C)C)n2nc(C)c(-c3c(C)cccc3C(=O)OCC)c2n1 [Compound 67, ethyl 3-[2-(ethoxycarbonyl)-6-methylphenyl]-2-methyl-7-(methylethyl)-8-hydropyrazolo[1,5-a]pyrimidine-5-carboxylate] | > 500 |
| Cc1cccc(C)c1-c1c(C)nn2c(C3CCCC3)cc(C(=O)O)nc12 [Compound 68, 3-(2,6-dimethylphenyl)-7-cyclopentyl-2-methyl-8-hydropyrazolo[1,5-a]pyrimidine-5-carboxylic acid] | 200 to 500 |
| CCOC(=O)c1cc(C2CCCC2)n2nc(C)c(-c3c(C)cccc3C)c2n1 [Compound 69, ethyl 3-(2,6-dimethylphenyl)-7-cyclopentyl-2-methyl-8-hydropyrazolo[1,5-a]pyrimidine-5-carboxylate] | > 500 |
| Cc1cccc(C)c1-c1c(C)nn2c(C3CC3)cc(C(=O)O)nc12 [Compound 71, 3-(2,6-dimethylphenyl)-7-cyclopropyl-2-methyl-8-hydropyrazolo[1,5-a]pyrimidine-5-carboxylic acid] | 200 to 500 |
| Cc1cccc(C)c1-c1c(C)nn2c(C(C)C)cc(C(=O)NO)nc12 [Compound 75, 3-(2,6-dimethylphenyl)-2-methyl-7-(methylethyl)-8-hydropyrazolo[1,5-a]pyrimidine-5-carbohydroxamic acid] | 100 to 200 |
| COc1cccc(C)c1-c1c(C)nn2c(C(C)C)cc(C(=O)O)nc12 [Compound 76, 3-(2-methoxy-6-methylphenyl)-2-methyl-7-(methylethyl)-8-hydropyrazolo[1,5-a]pyrimidine-5-carboxylic acid] | > 500 |
| CCOC(=O)c1cc(C(C)C)n2nc(-c3ccccc3)c(-c3c(C)cccc3C)c2n1 [Compound 78, ethyl 3-(2,6-dimethylphenyl)-7-(methylethyl)-2-phenyl-8-hydropyrazolo[1,5-a]pyrimidine-5-carboxylate] | > 500 |
| Cc1cccc(C)c1-c1c(C2CCC2)nn2c(C(C)C)cc(C(=O)O)nc12 [Compound 81, 3-(2,6-dimethylphenyl)-2-cyclobutyl-7-(methylethyl)-8-hydropyrazolo[1,5-a]pyrimidine-5-carboxylic acid] | > 500 |
| CCOC(=O)c1cc(-c2ccccc2)n2nc(C)c(-c3c(C)cccc3C)c2n1 [Compound 82, ethyl 3-(2,6-dimethylphenyl)-2-methyl-7-phenyl-8-hydropyrazolo[1,5-a]pyrimidine-5-carboxylate] | > 500 |
| Cc1cccc(C)c1-c1c(C)nn2c(-c3ccccc3)cc(C(=O)O)nc12 [Compound 83, 3-(2,6-dimethylphenyl)-2-methyl-7-phenyl-8-hydropyrazolo[1,5-a]pyrimidine-5-carboxylic acid] | > 500 |
| Cc1cccc(C)c1-c1c(C2CC2)nn2c(C(C)C)cc(C(=O)O)nc12 [Compound 84, 3-(2,6-dimethylphenyl)-2-cyclopropyl-7-(methylethyl)-8-hydropyrazolo[1,5-a]pyrimidine-5-carboxylic acid] | > 500 |
| CCOC(=O)c1cc(C(C)C)n2nc(CO)c(-c3c(C)cccc3C)c2n1 [Compound 86, ethyl 3-(2,6-dimethylphenyl)-2-(hydroxymethyl)-7-(methylethyl)-8-hydropyrazolo[1,5-a]pyrimidine-5-carboxylate] | > 500 |
| Cc1cccc(C)c1-c1c(CO)nn2c(C(C)C)cc(C(=O)O)nc12 [Compound 87, 3-(2,6-dimethylphenyl)-2-(hydroxymethyl)-7-(methylethyl)-8-hydropyrazolo[1,5-a]pyrimidine-5-carboxylic acid] | > 500 |
| COCc1nn2c(C(C)C)cc(C(=O)OC)nc2c1-c1c(C)cccc1C [Compound 88, methyl 3-(2,6-dimethylphenyl)-2-(methoxymethyl)-7-(methylethyl)-8-hydropyrazolo[1,5-a]pyrimidine-5-carboxylate] | > 500 |
| COCc1nn2c(C(C)C)cc(C(=O)O)nc2c1-c1c(C)cccc1C [Compound 89, 3-(2,6-dimethylphenyl)-2-(methoxymethyl)-7-(methylethyl)-8-hydropyrazolo[1,5-a]pyrimidine-5-carboxylic acid] | > 500 |
| Cc1cccc(C)c1-c1c(CN(C)C)nn2c(C(C)C)cc(C(=O)O)nc12 [Compound 90, 2-[(dimethylamino)methyl]-3-(2,6-dimethylphenyl)-7-(methylethyl)-8-hydropyrazolo[1,5-a]pyrimidine-5-carboxylic acid] | > 500 |
| CCOC(=O)c1cc(C(C)C)n2nc(C)c(-c3c(F)cccc3OC)c2n1 [Compound 91, ethyl 3-(6-fluoro-2-methoxyphenyl)-2-methyl-7-(methylethyl)-8-hydropyrazolo[1,5-a]pyrimidine-5-carboxylate] | > 500 |
| COc1cccc(F)c1-c1c(C)nn2c(C(C)C)cc(C(=O)O)nc12 [Compound 92, 3-(6-fluoro-2-methoxyphenyl)-2-methyl-7-(methylethyl)-8-hydropyrazolo[1,5-a]pyrimidine-5-carboxylic acid] | > 500 |

Other lines, results leading:

| EC50 [nM] | SMILES |
| --- | --- |
| > 500 | CCOC(=O)c1cc(C(C)C)n2nc(C)c(-c3c(C)cc(Cl)cc3C)c2n1 [Compound 66, ethyl 3-(4-chloro-2,6-dimethylphenyl)-2-methyl-7-(methylethyl)-8-hydropyrazolo[1,5-a]pyrimidine-5-carboxylate] |
| > 500 | Cc1cc(Cl)cc(C)c1-c1c(C)nn2c(C(C)C)cc(C(=O)O)nc12 [Compound 70, 3-(4-chloro-2,6-dimethylphenyl)-2-methyl-7-(methylethyl)-8-hydropyrazolo[1,5-a]pyrimidine-5-carboxylic acid] |
| > 500 | CCc1cc(C(=O)O)nc2c(-c3c(C)cccc3C)c(C)nn12 [Compound 72, 3-(2,6-dimethylphenyl)-7-ethyl-2-methyl-8-hydropyrazolo[1,5-a]pyrimidine-5-carboxylic acid] |
| > 500 | CCOC(=O)c1cc(C(C)C)n2nc(C(C)C)c(-c3c(C)cccc3C)c2n1 [Compound 73, ethyl 2,7-bis(methylethyl)-3-(2,6-dimethylphenyl)-8-hydropyrazolo[1,5-a]pyrimidine-5-carboxylate] |
| > 500 | CCc1nn2c(C(C)C)cc(C(=O)O)nc2c1-c1c(C)cccc1C [Compound 74, 3-(2,6-dimethylphenyl)-2-ethyl-7-(methylethyl)-8-hydropyrazolo[1,5-a]pyrimidine-5-carboxylic acid] |
| 100 to 200 | CCOC(=O)c1cccc(C)c1-c1c(C)nn2c(C(C)C)cc(C(=O)O)nc12 [Compound 77, 3-[6-(ethoxycarbonyl)-2-methylphenyl]-2-methyl-7-(methylethyl)-8-hydropyrazolo[1,5-a]pyrimidine-5-carboxylic acid] |
| > 500 | Cc1cccc(C)c1-c1c(-c2ccccc2)nn2c(C(C)C)cc(C(=O)O)nc12 [Compound 79, 3-(2,6-dimethylphenyl)-7-(methylethyl)-2-phenyl-8-hydropyrazolo[1,5-a]pyrimidine-5-carboxylic acid] |
| > 500 | Cc1cccc(C)c1-c1c(C(C)C)nn2c(C(C)C)cc(C(=O)O)nc12 [Compound 80, 2,7-bis(methylethyl)-3-(2,6-dimethylphenyl)-8-hydropyrazolo[1,5-a]pyrimidine-5-carboxylic acid] |
| > 500 | Cc1cccc(C(=O)O)c1-c1c(C)nn2c(C(C)C)cc(C(=O)O)nc12 [Compound 85, 3-(2-carboxy-6-methylphenyl)-2-methyl-7-(methylethyl)-8-hydropyrazolo[1,5-a]pyrimidine-5-carboxylic acid] |
